Test results as given in publication PMC10165273, “Itch receptor MRGPRX4 interacts with the receptor activity–modifying proteins” (The Journal of Biological Chemistry, 2023).
Read-outs that look alike come from different tables or passages of the source.

Target: T1, MRGPRX4 + RAMP2 (Homo sapiens, UniProt Q96LA9)
T1 construct: expressed in transfected cells; host or cells: HEK293T
Assay: IP1 accumulation, MRGPRX4 coexpressed with RAMP2
Assay type: cell-based
Settings: for activation at 100 µM / activation at 20 µM / activation at 4 µM / activation at 0.8 µM / activation at […] / activation at 0.032 µM: 2 h
Procedure: HEK293T cells were transfected with 1 pg/cell of MRGPRX4 DNA, and the amount of DNA was kept constant at 2 pg/cell with pcDNA3.1(+) empty vector, unless otherwise specified. Twenty four hours after transfection, IP1 assay was performed as previously described ([51]). When applicable, cells were treated with 1 μM YM254890 (YM) or different concentrations of U73122 for 1 h prior to addition of agonist or buffer. After incubation for 2 h, HTRF reagents and IP1 calibration standards were added and incubated for 2 h in the dark at room temperature. Time-resolved fluorescence signals were read on the BioTek Synergy NEO-TRF Hybrid multi-mode reader (BioTek Instruments). All data were carried out in three independent experiments with three technical replicate each.
For RAMP DNA titration assay, HEK293T cells were cotransfected with a constant amount of 1 pg/cell of FLAG-MRGPRX4-GFP10-1D4 to which a serial dilution of 1, 0.75, 0.5, 0.25, or 0 pg/cell of each HA-RAMP-OLLAS was added. For a homogenous transfection of MRGPRX4, a master mix of MRGPRX4 DNA was made prior to addition of the RAMP DNA. […]
Data reduction, standard calibration, and transformation of HTRF data were performed as previously described ([51]). Normalized IP1 values were calculated relative to the unstimulated mock-transfected cells (set to 0%) and fully stimulated MRGPRX4 (alone if applicable) (set to 100%).

T1 sequence (Q96LA9 whole entry): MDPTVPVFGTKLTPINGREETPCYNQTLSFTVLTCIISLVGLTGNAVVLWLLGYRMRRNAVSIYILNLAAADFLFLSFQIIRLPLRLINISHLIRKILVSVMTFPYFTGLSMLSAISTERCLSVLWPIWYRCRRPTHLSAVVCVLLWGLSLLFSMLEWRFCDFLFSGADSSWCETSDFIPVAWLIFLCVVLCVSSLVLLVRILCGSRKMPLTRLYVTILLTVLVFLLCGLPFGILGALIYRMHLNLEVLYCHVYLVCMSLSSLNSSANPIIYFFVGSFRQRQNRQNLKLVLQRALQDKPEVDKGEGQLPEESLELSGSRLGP

SMILES: CC(C)[C@H]1CC[C@H](C(=O)N[C@H](Cc2ccccc2)C(=O)O)CC1 [Nateglinide]
- activation at 100 µM (log [nateglinide] (M) -4, MRGPRX4+RAMP2 0.75pg 1:0.75, Supplementary Figure 5e, read-out: IP1 accumulation (normalized)): 67.4%
- activation at 100 µM (log [nateglinide] (M) -4, MRGPRX4+RAMP2 1pg 1:1, Supplementary Figure 5e, 5g, read-out: IP1 accumulation (normalized)): 56.4%
- activation at 20 µM (log [nateglinide] (M) -4.69897, MRGPRX4+RAMP2 0.5pg 1:0.5, Supplementary Figure 5e, read-out: IP1 accumulation (normalized)): 67.3%
- activation at 20 µM (log [nateglinide] (M) -4.69897, MRGPRX4+RAMP2 0.75pg 1:0.75, Supplementary Figure 5e, read-out: IP1 accumulation (normalized)): 50.8%
- activation at 20 µM (log [nateglinide] (M) -4.69897, MRGPRX4+RAMP2 1pg 1:1, Supplementary Figure 5e, 5g, read-out: IP1 accumulation (normalized)): 31.2%
- activation at 4 µM (log [nateglinide] (M) -5.39794, MRGPRX4+RAMP2 0.5pg 1:0.5, Supplementary Figure 5e, read-out: IP1 accumulation (normalized)): 27.4%
- activation at 4 µM (log [nateglinide] (M) -5.39794, MRGPRX4+RAMP2 0.75pg 1:0.75, Supplementary Figure 5e, read-out: IP1 accumulation (normalized)): 22.7%
- activation at 4 µM (log [nateglinide] (M) -5.39794, MRGPRX4+RAMP2 1pg 1:1, Supplementary Figure 5e, 5g, read-out: IP1 accumulation (normalized)): 15%
- activation at 0.8 µM (log [nateglinide] (M) -6.09691, MRGPRX4+RAMP2 0.5pg 1:0.5, Supplementary Figure 5e, read-out: IP1 accumulation (normalized)): 14.1%
- activation at 0.8 µM (log [nateglinide] (M) -6.09691, MRGPRX4+RAMP2 0.75pg 1:0.75, Supplementary Figure 5e, read-out: IP1 accumulation (normalized)): 9.77%
- activation at 0.8 µM (log [nateglinide] (M) -6.09691, MRGPRX4+RAMP2 1pg 1:1, Supplementary Figure 5e, 5g, read-out: IP1 accumulation (normalized)): 5.12%
- activation at […] (log [nateglinide] (M) -6.79588, MRGPRX4+RAMP2 0.5pg 1:0.5, Supplementary Figure 5e, read-out: IP1 accumulation (normalized)): 8.46%
- activation at […] (log [nateglinide] (M) -6.79588, MRGPRX4+RAMP2 0.75pg 1:0.75, Supplementary Figure 5e, read-out: IP1 accumulation (normalized)): 6.53%
- activation at […] (log [nateglinide] (M) -6.79588, MRGPRX4+RAMP2 1pg 1:1, Supplementary Figure 5e, 5g, read-out: IP1 accumulation (normalized)): 3.5%
- activation at 0.032 µM (log [nateglinide] (M) -7.49485, MRGPRX4+RAMP2 0.5pg 1:0.5, Supplementary Figure 5e, read-out: IP1 accumulation (normalized)): 8.31%
- activation at 0.032 µM (log [nateglinide] (M) -7.49485, MRGPRX4+RAMP2 0.75pg 1:0.75, Supplementary Figure 5e, read-out: IP1 accumulation (normalized)): 6.16%
- activation at 0.032 µM (log [nateglinide] (M) -7.49485, MRGPRX4+RAMP2 1pg 1:1, Supplementary Figure 5e, 5g, read-out: IP1 accumulation (normalized)): 3.54%
- activation at 100 µM (ratio MRGPRX4:RAMP2 1:0.25, log [Nateglinide] (M) -4, Fig S3b, read-out: IP1 accumulation): 98.8%
- activation at 20 µM (ratio MRGPRX4:RAMP2 1:0.25, log [Nateglinide] (M) -4.69897, Fig S3b, read-out: IP1 accumulation): 58.9%
- activation at 4 µM (ratio MRGPRX4:RAMP2 1:0.25, log [Nateglinide] (M) -5.39794, Fig S3b, read-out: IP1 accumulation): 38%
- activation at 0.8 µM (ratio MRGPRX4:RAMP2 1:0.25, log [Nateglinide] (M) -6.09691, Fig S3b, read-out: IP1 accumulation): 25.5%
- activation at […] (ratio MRGPRX4:RAMP2 1:0.25, log [Nateglinide] (M) -6.79588, Fig S3b, read-out: IP1 accumulation): 22.6%
- activation at 0.032 µM (ratio MRGPRX4:RAMP2 1:0.25, log [Nateglinide] (M) -7.49485, Fig S3b, read-out: IP1 accumulation): 20.5%
- activation at 100 µM (ratio MRGPRX4:RAMP2 1:0.5, log [Nateglinide] (M) -4, Fig S3b, read-out: IP1 accumulation): 67.8%
- activation at 20 µM (ratio MRGPRX4:RAMP2 1:0.5, log [Nateglinide] (M) -4.69897, Fig S3b, read-out: IP1 accumulation): 62.1%
- activation at 4 µM (ratio MRGPRX4:RAMP2 1:0.5, log [Nateglinide] (M) -5.39794, Fig S3b, read-out: IP1 accumulation): 36.6%
- activation at 0.8 µM (ratio MRGPRX4:RAMP2 1:0.5, log [Nateglinide] (M) -6.09691, Fig S3b, read-out: IP1 accumulation): 20.3%
- activation at […] (ratio MRGPRX4:RAMP2 1:0.5, log [Nateglinide] (M) -6.79588, Fig S3b, read-out: IP1 accumulation): 15.7%
- activation at 0.032 µM (ratio MRGPRX4:RAMP2 1:0.5, log [Nateglinide] (M) -7.49485, Fig S3b, read-out: IP1 accumulation): 15.3%
- activation at 100 µM (ratio MRGPRX4:RAMP2 1:1, log [Nateglinide] (M) -4, Fig S3b, read-out: IP1 accumulation): 40.5%
- activation at 20 µM (ratio MRGPRX4:RAMP2 1:1, log [Nateglinide] (M) -4.69897, Fig S3b, read-out: IP1 accumulation): 43.2%
- activation at 4 µM (ratio MRGPRX4:RAMP2 1:1, log [Nateglinide] (M) -5.39794, Fig S3b, read-out: IP1 accumulation): 21.9%
- activation at 0.8 µM (ratio MRGPRX4:RAMP2 1:1, log [Nateglinide] (M) -6.09691, Fig S3b, read-out: IP1 accumulation): 14.1%
- activation at […] (ratio MRGPRX4:RAMP2 1:1, log [Nateglinide] (M) -6.79588, Fig S3b, read-out: IP1 accumulation): 11.3%
- activation at 0.032 µM (ratio MRGPRX4:RAMP2 1:1, log [Nateglinide] (M) -7.49485, Fig S3b, read-out: IP1 accumulation): 11.1%
- activation at 100 µM (ratio MRGPRX4:RAMP2 1:2, log [Nateglinide] (M) -4, Fig S3b, read-out: IP1 accumulation): 28%
- activation at 20 µM (ratio MRGPRX4:RAMP2 1:2, log [Nateglinide] (M) -4.69897, Fig S3b, read-out: IP1 accumulation): 15.2%
- activation at 4 µM (ratio MRGPRX4:RAMP2 1:2, log [Nateglinide] (M) -5.39794, Fig S3b, read-out: IP1 accumulation): 6.45%
- activation at 0.8 µM (ratio MRGPRX4:RAMP2 1:2, log [Nateglinide] (M) -6.09691, Fig S3b, read-out: IP1 accumulation): 4.89%
- activation at […] (ratio MRGPRX4:RAMP2 1:2, log [Nateglinide] (M) -6.79588, Fig S3b, read-out: IP1 accumulation): 3.86%
- activation at 0.032 µM (ratio MRGPRX4:RAMP2 1:2, log [Nateglinide] (M) -7.49485, Fig S3b, read-out: IP1 accumulation): 3.91%
- Emax (Figure 4a bottom, DNA ratio MRGPRX4:RAMP2 1:1, MRGPRX4 alone = 100, read-out: efficacy): 35.1%
